# Laboratory results from patent US6716582B2 (priority 2000, dated 2004).
# “And” between values parts separate entries of the source, which are not always exact repeats. Equal values may be shown once.
# Legend:
# Format in all cases: cell-based, E. coli
# [1] = tested on: LuxArray 1.0 luxCDABE gene fusions; test: LuxArray 1.0 solid phase nalidixic acid perturbation; details: for Solid expt NA/LB: NA 5 μg/ml; for fold upregulation, nalidixic acid treated to untreated: solid LuxArray, 5 μg/ml, 4 hours
# Method: The E. coli strains were grown overnight at 37° C. in 40 μl LB medium supplemented with 100 μg/ml ampicillin in a set of sixteen 96-well dishes. These cultures were designated “printing plates” and were used as the cell source to manufacture the arrays. Porous membranes (Biodyne B, Nunc) were sterilized with UV illumination for 10 min then placed in contact with pre-warmed of solid LB growth media in a culture dish (OmniTray, Nunc). Printing of 4×4 subarrays was accomplished using a BioMek 2000 (Beckman Coulter) equipped with a High Density Replication Tool (HDRT). […] After sterilization, the pins are air-dried prior to the next transfer. The E. coli strains in the LuxArray were printed onto an approximately 8×12 cm membrane in two sets of triplicates.
# Arrays were printed from fresh overnight cultures onto membranes on plates containing LB media. After 6 hr of growth at 37° C. membranes were moved to pre-warmed plates containing either LB media or LB media supplemented with 5 μg/ml nalidixic acid then replaced at 37° C. to continue growing. Images were collected for each array every two hours from 0-8 hr after relocation using a cooled CCD camera (Fluor Chem 8000: f0.85 lens, 2 min exposure, AlphaInnotech).
# Spot intensity of each image was determined using ArrayVision™ (Imaging Research, Toronto, Canada) and the resultant pixel density measurements imported into a template with identifiers for each spot. The average signal for each of the triplicate spots was calculated. The background signal, which results from cross illumination of neighboring spots, was calculated by finding the median of the 24 spots containing a strain with the parental plasmid on each of the triplicate arrays and the calculating the average of the three medians. This background signal was calculated at each of the time points and subtracted from each measurement at the corresponding time point. All negative numbers were converted to zero.
# Data normalization to account for inhibition of growth by nalidixic acid was accomplished by finding the sum of the averaged signals of each spot in the array for each treatment at each time point. A normalization factor (NF) was calculated as follows:
# NF=Total array signal (time zero, LB control)/Total array signal (time x, condition y)
# Each measurement was multiplied by NF to yield a normalized signal. Ratios the nalidixic acid treated spot to the corresponding control spot were calculated using the normalized data.
# The ratios of the normalized data were compared for each of the […] spots resulting from independent cultures in the array. […] Twelve gene fusions were selected by these criteria (Table 15).
# yebF-luxCDABE fusion = test: inverted yebF-luxCDABE fusion induction by DNA damaging agents; details: inverted yebF-lux transformants; nalidixic acid
# Text: In this case, a divergent promoter to the purT gene was present in the chromosomal fragment and strains containing the backward yebF fusion produced light. Following isolation of plasmid DNA, XmaI digestion that releases the insert DNA from the vector, religation and transformation, 10% of the transformants produced light. […] The orientation of the inserted segment to yield a fusion of yebF to the luxCDABE operon was confirmed by DNA sequence analysis.
# To test inverting of a chromosomal segment in a plasmid containing divergent promoters, the backward fusion to yebF was chosen. […] In this case, a divergent promoter to the purT gene was present in the chromosomal fragment and strains containing the backward yebF fusion produced light. Following XmaI digestion, religation and transformation, 10% of the transformants produced light. […] This was verified by DNA sequence analysis. Thus, inverting chromosomal segments containing divergent promoters is possible and is facilitated if the two promoters can be distinguished by their biological activity.
# [2] = tested on: SOS regulon luxCDABE gene fusions; test: SOS regulon lux fusions: stress response in liquid LB; details: each of the eight SOS fusion strains; at least three concentrations
# Method: To test the stress responses, one or two single colonies of each selected strain were used to inoculate 5.0 ml of LB medium containing 150 μg/ml of ampicillin. These cultures were grown overnight at 37° C. then diluted by adding 50 μl or 100 μl of the overnight culture into 10.0 ml of fresh LB medium (without ampicillin) and grown with agitation at 37° C. until the culture was in exponential phase with readings on a Klett-Summerson colorimeter containing the red filter of between 10 and 40. These actively growing cultures were immediately used to initiate a stress response experiment by adding 50 μl of cultures to 50 μl of LB medium containing various concentrations of chemical in the wells a 96 well luminometer plate. This division of the actively growing culture at the time of chemical addition ensured identical populations were present when the stress was imposed. Light production was measured in a Dynex ML3000 luminometer at 37° C. The dimensionless units of light production, relative light units (RLU), are obtained by comparison with the light reading from an internal light-emitting diode.
# The ability of these promoter-luxCDABE fusions to report activation of the SOS stress response was tested using nalidixic acid, a known, potent chemical inducer. The final concentrations of nalidixic acid were 1, 5, 25, and 125 μg/ml for all but strain DPD2293, which was tested at 80, 40, 20, 10, 5, 2.5, and 1.25 μg/ml.
# Specificity of responses was tested by measuring the effect of ethanol on these SOS regulon gene fusions.
smiles,measurement,setting,value
"CCn1cc(C(=O)O)c(=O)c2ccc(C)nc21 [Nalidixic acid, nalidixic acid]",Solid expt NA/LB,"[1]; dinG ybiB lux-a.pk0024.f5, t = 2 hr, duplicate spots",2.5 and 3.4
same,Solid expt NA/LB,"[1]; dinG ybiB lux-a.pk0024.f5, t = 4 hr",3.7 and 4.2
same,Solid expt NA/LB,"[1]; dinG ybiB lux-a.pk0024.f5, t = 6 hr",3.5 and 3.1
same,Solid expt NA/LB,"[1]; dinG ybiB lux-a.pk0024.f5, t = 8 hr",2.9 and 2.6
same,Solid expt NA/LB,"[1]; dinP lux-a.pk055.a3, t = 2 hr",3.1 and 5.5
same,Solid expt NA/LB,"[1]; dinP lux-a.pk055.a3, t = 6 hr",4.2 and 8.1
same,Solid expt NA/LB,"[1]; frvR frvX frvB frvA lux-a.pk046.e6, t = 2 hr",2.8 and 2.1
same,Solid expt NA/LB,"[1]; frvR frvX frvB frvA lux-a.pk046.e6, t = 4 hr",2.3
same,Solid expt NA/LB,"[1]; lpxA lpxB rnhB dnaE lux-a.pk061.c3, t = 2 hr",3.5 and 2.7
same,Solid expt NA/LB,"[1]; lpxA lpxB rnhB dnaE lux-a.pk061.c3, t = 4 hr",3.1 and 3.5
same,Solid expt NA/LB,"[1]; lpxA lpxB rnhB dnaE lux-a.pk061.c3, t = 6 hr",2.8 and 3.0
same,Solid expt NA/LB,"[1]; lpxA lpxB rnhB dnaE lux-a.pk061.c3, t = 8 hr",1.7 and 1.9
same,Solid expt NA/LB,"[1]; lux-a.pk0015.d6, t = 2 hr",2.3 and 2.2
same,Solid expt NA/LB,"[1]; lux-a.pk0015.d6, t = 4 hr",6.4 and 4.1
same,Solid expt NA/LB,"[1]; lux-a.pk0015.d6, t = 6 hr",2.7 and 1.9
same,Solid expt NA/LB,"[1]; lux-a.pk0015.d6, t = 8 hr",0.6 and 0.8
same,Solid expt NA/LB,"[1]; lux-a.pk0019.g1, t = 2 hr",2.5 and 4.4
same,Solid expt NA/LB,"[1]; lux-a.pk0019.g1, t = 4 hr",7.7 and 8.2
same,Solid expt NA/LB,"[1]; lux-a.pk0019.g1, t = 6 hr",9.7 and 15.5
same,Solid expt NA/LB,"[1]; lux-a.pk0019.g1, t = 8 hr",7.1 and 10.2
same,Solid expt NA/LB,"[1]; lux-a.pk033.c5, t = 2 hr",3.7 and 2.1
same,Solid expt NA/LB,"[1]; lux-a.pk033.c5, t = 4 hr",4.3 and 3.1
same,Solid expt NA/LB,"[1]; lux-a.pk033.c5, t = 6 hr",3.2 and 3.3
same,Solid expt NA/LB,"[1]; lux-a.pk033.c5, t = 8 hr",2.6 and 2.5
same,Solid expt NA/LB,"[1]; oraA lux-a.pk058.f5, t = 2 hr",5.1 and 4.7
same,Solid expt NA/LB,"[1]; oraA lux-a.pk058.f5, t = 4 hr",7.9 and 7.7
same,Solid expt NA/LB,"[1]; oraA lux-a.pk058.f5, t = 6 hr",5.9 and 5.6
same,Solid expt NA/LB,"[1]; oraA lux-a.pk058.f5, t = 8 hr",3.9 and 3.8
same,"fold upregulation, nalidixic acid treated to untreated","[1]; ruvA-lux, duplicate spots",1.7 fold and 2.1 fold
same,Solid expt NA/LB,"[1]; uvrA lux-a.pk0001.b6, t = 2 hr",2.5 and 2.9
same,Solid expt NA/LB,"[1]; uvrA lux-a.pk0001.b6, t = 4 hr",2.3 and 2.4
same,Solid expt NA/LB,"[1]; uvrA lux-a.pk0001.b6, t = 6 hr",1.6 and 1.1
same,Solid expt NA/LB,"[1]; uvrA lux-a.pk0001.b6, t = 8 hr",1.0 and 0.6
same,"fold upregulation, nalidixic acid treated to untreated","[1]; uvrD-lux, duplicate spots",1.6 fold and 1.9 fold
same,Solid expt NA/LB,"[1]; yaaF lux-a.pk031.e7, t = 2 hr",2.1 and 2.0
same,Solid expt NA/LB,"[1]; yaaF lux-a.pk031.e7, t = 4 hr",2.0 and 2.1
same,Solid expt NA/LB,"[1]; yaaF lux-a.pk031.e7, t = 6 hr",1.3 and 1.8
same,Solid expt NA/LB,"[1]; yaaF lux-a.pk031.e7, t = 8 hr",1.0 and 1.5
same,Solid expt NA/LB,"[1]; yfhJ fdx hscA yfhE lux-a.pk0019.g2, t = 2 hr",2.1
same,Solid expt NA/LB,"[1]; yfhJ fdx hscA yfhE lux-a.pk0019.g2, t = 4 hr",2.0 and 2.2
same,Solid expt NA/LB,"[1]; yfhJ fdx hscA yfhE lux-a.pk0019.g2, t = 6 hr",1.7 and 1.5
same,Solid expt NA/LB,"[1]; yfhJ fdx hscA yfhE lux-a.pk0019.g2, t = 8 hr",1.4 and 1.3
same,Solid expt NA/LB,"[1]; yigN lux-a.pk046.f11, t = 4 hr",2.5 and 4.3
same,induction of bioluminescence,yebF-luxCDABE fusion,highly induced
same,bioluminescence vs untreated control,[2],increased bioluminescence
